Columns and labels:
Assay type in all cases: cell-based
[1] = tested on: mitochondria in mouse keratinocytes; experiment: MTT assay after UV-B irradiation
Description: Mouse keratinocytes were pretreated with different concentrations of L-ergothioneine (unencapsulated) and then exposed to ultraviolet B radiation (UV-B), the shorter wavelength range of UV light present in sunlight which is responsible for significant photodamage to the skin. The light was generated by a FS20 sunlamp filtered with 2 sheets of Kodacel to eliminate light having a wavelength less than 280 nm.
(§1) This assay measures the specific activity of mitochondria to cleave the tetrazolium ring of the soluble dye MTT [3-(4,5-dimethylthiazol-2-yl)-2,5-diphenyl tetrazolium bromide] to form the insoluble blue formazan form. Living mitochondria metabolize MTT and make the blue formazan; dead mitochondria immediately stop forming blue formazan. In the MTT assay, mammalian cells are pretreated with L-ergothioneine and then treated with the mitochondrial damaging agent, in this example UV-B. MTT is then added and the formation of the blue dye is measured spectrophotometrically.
Table I provides the percent optical density of the formazan blue present relative to unexposed (control) mitochondria in cells for various UV-B levels, expressed as joules per square meter, and L-ergothioneine concentrations.
Mouse keratinocytes were pretreated with L-ergothioneine, both unencapsulated and encapsulated in liposomes (prepared as described below), at a final concentration of 12.5 μM. A control group was not treated with L-ergothioneine. The mouse keratinocytes were then exposed to UV-B as in Example I.
The L-ergothioneine was encapsulated into liposomes composed of phosphatidyl choline, phosphatidyl ethanolamine, oleic acid and cholesteryl hemisuccinate in a ratio of 2:2:1:5. To calculate the concentration of entrapped L-ergothioneine, the liposomes are extracted with chloroform, and the OD258 is measured in the aqueous layer. The concentration of L-ergothioneine is calculated using the ε258 of L-ergothioneine of 14,500. The final concentration of L-ergothioneine in the purified liposome was about 1.1 mM. […] Unencapsulated L-ergothioneine was adjusted to the same concentration by dilution.
The effect of the UV-B on the pretreated and untreated mitochondria was determined by the MTT assay as in Example 1.
Table 3 provides the percent optical density of the formazan blue present in each case relative to unexposed (control) mitochondria in cells for various UV-B levels.

[2] = tested on: mitochondria in mouse keratinocytes; experiment: MTT assay after alloxan exposure
Description: as §1
Mouse keratinocytes were pretreated with various concentrations of L-ergothioneine (unencapsulated) and then exposed to alloxan at various concentrations.
The effect of alloxan on the pretreated mitochondria was determined by the MTT assay as in Example 1.
Table 2 provides the percent optical densities of the formazan blue present relative to unexposed (control) mitochondria in cells for various alloxan concentrations, and L-ergothioneine concentrations.

[3] = tested on: mitochondrial membranes in mouse keratinocytes; experiment: JC-1 assay (fluorescence microscopy) after alloxan
Description: Mouse keratinocytes were pretreated with L-ergothioneine (unencapsulated) at 1 mM and then treated with 8 mM alloxan. One day after treatment with L-ergothioneine, the cells were treated for 10 minutes with JC-I and the cells examined by fluorescence microscopy.
The JC-1 assay makes use of the fluorescent dye JC-1 (5,5′, 6,6′-tetrachloro-1, 1′, 3,3′-tetrathylbenzimidazolecarbocyanine iodide) (Molecular Probes Inc., Eugene, OR). This dye immediately and specifically intercalates into mitochondrial membranes. In living, charged membranes the JC-1 dye is maintained in the membrane as a […], and fluoresces green. When the mitochondrial membrane is damaged, aggregation of the JC-1 dye into J-1 aggregates occurs and the fluorescence changes to orange. Orange coloration is then characteristic of mitochondrial membrane damage.

**Q.** C[N+](C)(C)[C@@H](Cc1c[nH]c(=S)[nH]1)C(=O)[O-] [L-ergothioneine] was tested. Which “protection of mitochondria from UV-B damage” value ([1]; 12.5 μM, UV-B 100 and 500 J/m^2) did it give?
**A.** The value was “significant but not complete protection”.

**Q.** And the “percent optical density of formazan blue relative to unexposed (control) mitochondria” value ([1]; 0.1 mM L-ergothioneine, UV-B 0 J/m^2)?
**A.** Its value is 100.0%.

**Q.** What about the “percent optical density of formazan blue relative to unexposed (control) mitochondria” value ([1]; 0.1 mM L-ergothioneine, UV-B 100 J/m^2) of the same compound?
**A.** The value was 95.7%.

**Q.** And the “percent optical density of formazan blue relative to unexposed (control) mitochondria” value ([1]; 0.1 mM L-ergothioneine, UV-B 200 J/m^2)?
**A.** The value was 97.0%.

**Q.** What about the “percent optical density of formazan blue relative to unexposed (control) mitochondria” value ([1]; 0.1 mM L-ergothioneine, UV-B 500 J/m^2) of the same compound?
**A.** The value was 91.0%.

**Q.** And the “percent optical density of formazan blue relative to unexposed (control) mitochondria” value ([1]; 0.5 mM L-ergothioneine, UV-B 100 J/m^2)?
**A.** Its value is 97.2%.

**Q.** What about the “percent optical density of formazan blue relative to unexposed (control) mitochondria” value ([1]; 0.5 mM L-ergothioneine, UV-B 200 J/m^2) of the same compound?
**A.** The value was 99.4%.

**Q.** And the “percent optical density of formazan blue relative to unexposed (control) mitochondria” value ([1]; 0.5 mM L-ergothioneine, UV-B 500 J/m^2)?
**A.** Its value is 90.8%.

**Q.** And the “percent optical density of formazan blue relative to unexposed (control) mitochondria” value ([1]; 1 mM L-ergothioneine, UV-B 0 J/m^2)?
**A.** Its value is 100.0%.

**Q.** What about the “percent optical density of formazan blue relative to unexposed (control) mitochondria” value ([1]; 1 mM L-ergothioneine, UV-B 100 J/m^2) of the same compound?
**A.** Its value is 97.1%.

**Q.** And the “percent optical density of formazan blue relative to unexposed (control) mitochondria” value ([1]; 1 mM L-ergothioneine, UV-B 200 J/m^2)?
**A.** Its value is 103.9%.

**Q.** What about the “percent optical density of formazan blue relative to unexposed (control) mitochondria” value ([1]; 1 mM L-ergothioneine, UV-B 500 J/m^2) of the same compound?
**A.** Its value is 96.0%.

**Q.** And the mitochondrial viability ([1]; UV-B 100 and 200 J/m^2, all three levels of L-ergothioneine (0.1, 0.5, 1 mM))?
**A.** Its mitochondrial viability is “greater than 95%”.

**Q.** And the protection of mitochondria ([1]; highest UV-B dose (500 J/m^2))?
**A.** The protection of mitochondria was “still protected the mitochondria”.

**Q.** And the “percent optical density of formazan blue relative to unexposed (control) mitochondria” value ([1]; unencapsulated, 12.5 μM, UV-B 0 J/m^2)?
**A.** The value was 100.0%.

**Q.** What about the “percent optical density of formazan blue relative to unexposed (control) mitochondria” value ([1]; unencapsulated, 12.5 μM, UV-B 100 J/m^2) of the same compound?
**A.** The value was 89.9%.

**Q.** And the “percent optical density of formazan blue relative to unexposed (control) mitochondria” value ([1]; unencapsulated, 12.5 μM, UV-B 500 J/m^2)?
**A.** The value was 89.9%.

**Q.** And the “concentration at which active (protection from UV-B)” value ([1]; unencapsulated, UV-B 100 and 500 J/m^2)?
**A.** The value was no more than 12.5 µM.

**Q.** What about the “percent optical density of formazan blue relative to unexposed (control) mitochondria” value ([2]; 0.1 mM L-ergothioneine, alloxan 0 mM) of the same compound?
**A.** Its value is 100.0%.

**Q.** And the “percent optical density of formazan blue relative to unexposed (control) mitochondria” value ([2]; 0.1 mM L-ergothioneine, alloxan 0.625 mM)?
**A.** Its value is 86.3%.

**Q.** And the “percent optical density of formazan blue relative to unexposed (control) mitochondria” value ([2]; 0.1 mM L-ergothioneine, alloxan 1.25 mM)?
**A.** Its value is 80.8%.

**Q.** And the “percent optical density of formazan blue relative to unexposed (control) mitochondria” value ([2]; 0.1 mM L-ergothioneine, alloxan 2.5 mM)?
**A.** The value was 81.1%.

**Q.** What about the “percent optical density of formazan blue relative to unexposed (control) mitochondria” value ([2]; 0.1 mM L-ergothioneine, alloxan 5 mM) of the same compound?
**A.** Its value is 73.3%.

**Q.** What about the “percent optical density of formazan blue relative to unexposed (control) mitochondria” value ([2]; 0.1 mM L-ergothioneine, alloxan 10 mM) of the same compound?
**A.** Its value is 74.9%.

**Q.** And the “percent optical density of formazan blue relative to unexposed (control) mitochondria” value ([2]; 0.1 mM L-ergothioneine, alloxan 20 mM)?
**A.** The value was 79.1%.

**Q.** What about the “percent optical density of formazan blue relative to unexposed (control) mitochondria” value ([2]; 0.5 mM L-ergothioneine, alloxan 0 mM) of the same compound?
**A.** The value was 100.0%.

**Q.** And the “percent optical density of formazan blue relative to unexposed (control) mitochondria” value ([2]; 0.5 mM L-ergothioneine, alloxan 0.625 mM)?
**A.** The value was 88.3%.

**Q.** What about the “percent optical density of formazan blue relative to unexposed (control) mitochondria” value ([2]; 0.5 mM L-ergothioneine, alloxan 1.25 mM) of the same compound?
**A.** Its value is 81.0%.

**Q.** And the “percent optical density of formazan blue relative to unexposed (control) mitochondria” value ([2]; 0.5 mM L-ergothioneine, alloxan 2.5 mM)?
**A.** Its value is 81.0%.

**Q.** And the “percent optical density of formazan blue relative to unexposed (control) mitochondria” value ([2]; 0.5 mM L-ergothioneine, alloxan 5 mM)?
**A.** The value was 73.3%.

**Q.** And the “percent optical density of formazan blue relative to unexposed (control) mitochondria” value ([2]; 0.5 mM L-ergothioneine, alloxan 10 mM)?
**A.** Its value is 74.1%.

**Q.** What about the “percent optical density of formazan blue relative to unexposed (control) mitochondria” value ([2]; 0.5 mM L-ergothioneine, alloxan 20 mM) of the same compound?
**A.** Its value is 78.4%.

**Q.** And the “percent optical density of formazan blue relative to unexposed (control) mitochondria” value ([2]; 0.5 mM L-ergothioneine, alloxan 40 mM)?
**A.** Its value is 72.3%.

**Q.** And the “percent optical density of formazan blue relative to unexposed (control) mitochondria” value ([2]; 1 mM L-ergothioneine, alloxan 0 mM)?
**A.** Its value is 100.0%.

**Q.** What about the “percent optical density of formazan blue relative to unexposed (control) mitochondria” value ([2]; 1 mM L-ergothioneine, alloxan 0.625 mM) of the same compound?
**A.** The value was 91.2%.

**Q.** What about the “percent optical density of formazan blue relative to unexposed (control) mitochondria” value ([2]; 1 mM L-ergothioneine, alloxan 1.25 mM) of the same compound?
**A.** Its value is 86.5%.

**Q.** And the “percent optical density of formazan blue relative to unexposed (control) mitochondria” value ([2]; 1 mM L-ergothioneine, alloxan 2.5 mM)?
**A.** The value was 82.9%.

**Q.** What about the “percent optical density of formazan blue relative to unexposed (control) mitochondria” value ([2]; 1 mM L-ergothioneine, alloxan 10 mM) of the same compound?
**A.** Its value is 68.5%.

**Q.** And the “percent optical density of formazan blue relative to unexposed (control) mitochondria” value ([2]; 1 mM L-ergothioneine, alloxan 20 mM)?
**A.** The value was 72.7%.

**Q.** And the “percent optical density of formazan blue relative to unexposed (control) mitochondria” value ([2]; 1 mM L-ergothioneine, alloxan 40 mM)?
**A.** The value was 66.6%.

**Q.** What about the “protection from oxidative damage by alloxan” value ([2]; dose-responsive portion of the curve (alloxan up to 5 mM)) of the same compound?
**A.** Its value is “afforded protection from oxidative damage”.

**Q.** And the “JC-1 fluorescence colour (orange = mitochondrial membrane damage)” value ([3]; 1 mM L-ergothioneine alone, no alloxan)?
**A.** Its value is “green fluorescence”.

**Q.** And the “JC-1 fluorescence colour (orange = mitochondrial membrane damage)” value ([3]; 1 mM L-ergothioneine pretreatment, then 8 mM alloxan)?
**A.** The value was “much less orange than cells treated with alloxani alone”.

— US6479533B1, “Methods and compositions for the protection of mitochondria” (priority 1997, dated 2002)
